The results in this text go back to US9884849B2, “Fluorinated benzofuranyl-pyrimidine derivatives containing a sulfoximine group” (Bayer Pharma Aktiengesellschaft, priority 2014, dated 2018).

The target in one assay is T1, CDK9/CycT1 (Homo sapiens, UniProt P50750).
T1 construct: Recombinant full-length His-tagged human CDK9 and CycT1; His; purchased Invitrogen PV4131; host or cells: insect cells
Put plainly: CDK9/CycT1 kinase assay (Method 1a, TR-FRET). In kind it is biochemical. Conditions: 10 μM ATP; for Selectivity CDK9 over CDK2: IC50 (CDK2)/IC50 (CDK9): Methods 1a. and 2a. The source says: 1a. CDK9/CycT1 Kinase Assay:
CDK9/CycT1-Inhibitory Activity of Compounds of the Present Invention was Quantified Employing the CDK9/CycT1 TR-FRET Assay as Described in the Following Paragraphs:
Recombinant full-length His-tagged human CDK9 and CycT1, expressed in insect cells and purified by Ni-NTA affinity chromatography, were purchased from Invitrogen (Cat. No PV4131). As substrate for the kinase reaction biotinylated peptide biotin-Ttds-YISPLKSPYKISEG (C-terminus in amid form) was used which can be purchased e.g. form the company JERINI Peptide Technologies (Berlin, Germany). For the assay 50 nl of a 100 fold concentrated solution of the test compound in DMSO was pipetted into a black low volume 384 well microtiter plate (Greiner Bio-One, Frickenhausen, Germany), 2 μl of a solution of CDK9/CycT1 in aqueous assay buffer [50 mM Tris/HCl pH 8.0, 10 mM MgCl2, 1.0 mM dithiothreitol, 0.1 mM sodium ortho-vanadate, 0.01% (v/v) Nonidet-P40 (Sigma)] were added and the mixture was incubated for 15 min at 22° C. to allow pre-binding of the test compounds to the enzyme before the start of the kinase reaction. Then the kinase reaction was started by the addition of 3 μl of a solution of adenosine-tri-phosphate (ATP, 16.7 μM=>final conc. in the 5 μl assay volume is 10 μM) and substrate (1.67 μM=>final conc. in the 5 μl assay volume is 1 μM) in assay buffer and the resulting mixture was incubated for a reaction time of 25 min at 22° C. The concentration of CDK9/CycT1 was adjusted depending of the activity of the enzyme lot and was chosen appropriate to have the assay in the linear range, typical concentrations were in the range of 1 μg/mL. The reaction was stopped by the addition of 5 μl of a solution of TR-FRET detection reagents (0.2 μM streptavidine-XL665 [Cisbio Bioassays, Codolet, France] and 1 nM anti-RB(pSer807/pSer811)-antibody from BD Pharmingen [#558389] and 1.2 nM LANCE EU-W1024 labeled anti-mouse IgG antibody [Perkin-Elmer, product no. AD0077]) in an aqueous EDTA-solution (100 mM EDTA, 0.2% (w/v) bovine serum albumin in 100 mM HEPES/NaOH pH 7.0).
The resulting mixture was incubated 1 h at 22° C. to allow the formation of complex between the phosphorylated biotinylated peptide and the detection reagents. Subsequently the amount of phosphorylated substrate was evaluated by measurement of the resonance energy transfer from the Eu-chelate to the streptavidine-XL. Therefore, the fluorescence emissions at 620 nm and 665 nm after excitation at 350 nm was measured in a HTRF reader, e.g. a Rubystar (BMG Labtechnologies, Offenburg, Germany) or a Viewlux (Perkin-Elmer). The ratio of the emissions at 665 nm and at […] was taken as the measure for the amount of phosphorylated substrate. The data were normalised (enzyme reaction without inhibitor=0% inhibition, all other assay components but no enzyme=100% inhibition).
A general note: In TR-FRET formats the signal depends on donor and acceptor labels being close together.

Another assay has as its system DU145 cells. Put plainly: Proliferation assay DU145 (Method 3). It counts as cell-based, human. Conditions: DU145, 4 days, crystal violet, read-out: Inhibition of DU145 cell proliferation IC50. The method, then: (§1) Cultivated tumour cells (HeLa, human cervical tumour cells, ATCC CCL-2; NCI-H460, human non-small cell lung carcinoma cells, ATCC HTB-177; A2780, human ovarian carcinoma cells, ECACC #93112519; DU 145, hormone-independent human prostate carcinoma cells, ATCC HTB-81; HeLa-MaTu-ADR, multidrug-resistant human cervical carcinoma cells, EPO-GmbH Berlin; Caco-2, human colorectal carcinoma cells, ATCC HTB-37; B16F10, mouse melanoma cells, ATCC CRL-6475) were plated at a density of 5,000 cells/well (DU145, HeLa-MaTu-ADR), 3,000 cells/well (NCI-H460, HeLa), 2,500 cells/well (A2780), 1,500 cells/well (Caco-2), or 1,000 cells/well (B16F10) in a 96-well multititer plate in 200 μL of their respective growth medium supplemented 10% fetal calf serum. After 24 hours, the cells of one plate (zero-point plate) were stained with crystal violet (see below), while the medium of the other plates was replaced by fresh culture medium (200 μl), to which the test substances were added in various concentrations (0 μM, as well as in the range of 0.001-10 μM; the final concentration of the solvent dimethyl sulfoxide was 0.5%). The cells were incubated for 4 days in the presence of test substances. Cell proliferation was determined by staining the cells with crystal violet: the cells were fixed by adding 20 μl/measuring point of an 11% glutaric aldehyde solution for 15 minutes at room temperature. After three washing cycles of the fixed cells with water, the plates were dried at room temperature. The cells were stained by adding 100 μl/measuring point of a 0.1% crystal violet solution (pH 3.0). After three washing cycles of the stained cells with water, the plates were dried at room temperature. The dye was dissolved by adding 100 μl/measuring point of a 10% acetic acid solution. The extinction was determined by photometry at a wavelength of 595 nm. The change of cell number, in percent, was calculated by normalization of the measured values to the extinction values of the zero-point plate (=0%) and the extinction of the untreated (0 μm) cells (=100%). The IC50 values (inhibitory concentration at 50% of maximal effect) were determined by means of a 4 parameter fit.

A further assay concerns Caco-2 cells. The assay can be described thus: Proliferation assay Caco-2 (Method 3). In kind it is cell-based, human. To be noted: Caco-2, 4 days, crystal violet, read-out: Inhibition of Caco-2 cell proliferation IC50. How it is done:
as §1

For another assay, the system named is MOLM-13 cells. The assay can be described thus: Proliferation assay MOLM-13 (Method 3). Conditions: MOLM-13, 72-hour exposure, Cell Titre-Glo, read-out: Inhibition of MOLM-13 cell proliferation IC50. In kind it is cell-based, human. How it is done:
Non-adherent MOLM-13 human acute myeloid leukemia cells (DSMZ ACC 554) were seeded at a density of 5,000 cells/well in a 96-well multititer plate in 100 μL of growth medium supplemented 10% fetal calf serum. After 24 hours, cell viability of one plate (zero-point plate) was determined with the Cell Titre-Glo Luminescent Cell Viability Assay (Promega), while 50 μL of test compound containing medium was added to the wells of the other plates (final concentrations in the range of 0.001-10 μM and DMSO controls; the final concentration of the solvent dimethyl sulfoxide was 0.5%). Cell viability was assessed after 72-hour exposure with the Cell Titre-Glo Luminescent Cell Viability Assay (Promega). IC50 values (inhibitory concentration at 50% of maximal effect) were determined by means of a 4 parameter fit on measurement data which were normalized to vehicle (DMSO) treated cells (=100%) and measurement readings taken immediately before compound exposure (=0%).

Where two headings read alike, the source gives them in different places.

T1 sequence (P50750 whole entry): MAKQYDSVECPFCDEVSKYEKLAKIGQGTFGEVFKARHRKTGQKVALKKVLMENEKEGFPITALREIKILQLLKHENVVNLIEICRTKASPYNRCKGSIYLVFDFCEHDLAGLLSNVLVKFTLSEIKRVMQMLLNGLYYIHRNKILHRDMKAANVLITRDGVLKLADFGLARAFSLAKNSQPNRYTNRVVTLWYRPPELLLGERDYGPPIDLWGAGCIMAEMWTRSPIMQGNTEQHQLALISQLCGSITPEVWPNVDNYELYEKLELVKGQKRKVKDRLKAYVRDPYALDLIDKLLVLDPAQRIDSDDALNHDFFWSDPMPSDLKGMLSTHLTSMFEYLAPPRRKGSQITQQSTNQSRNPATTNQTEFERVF
T1 sequence (O60563 whole entry partner): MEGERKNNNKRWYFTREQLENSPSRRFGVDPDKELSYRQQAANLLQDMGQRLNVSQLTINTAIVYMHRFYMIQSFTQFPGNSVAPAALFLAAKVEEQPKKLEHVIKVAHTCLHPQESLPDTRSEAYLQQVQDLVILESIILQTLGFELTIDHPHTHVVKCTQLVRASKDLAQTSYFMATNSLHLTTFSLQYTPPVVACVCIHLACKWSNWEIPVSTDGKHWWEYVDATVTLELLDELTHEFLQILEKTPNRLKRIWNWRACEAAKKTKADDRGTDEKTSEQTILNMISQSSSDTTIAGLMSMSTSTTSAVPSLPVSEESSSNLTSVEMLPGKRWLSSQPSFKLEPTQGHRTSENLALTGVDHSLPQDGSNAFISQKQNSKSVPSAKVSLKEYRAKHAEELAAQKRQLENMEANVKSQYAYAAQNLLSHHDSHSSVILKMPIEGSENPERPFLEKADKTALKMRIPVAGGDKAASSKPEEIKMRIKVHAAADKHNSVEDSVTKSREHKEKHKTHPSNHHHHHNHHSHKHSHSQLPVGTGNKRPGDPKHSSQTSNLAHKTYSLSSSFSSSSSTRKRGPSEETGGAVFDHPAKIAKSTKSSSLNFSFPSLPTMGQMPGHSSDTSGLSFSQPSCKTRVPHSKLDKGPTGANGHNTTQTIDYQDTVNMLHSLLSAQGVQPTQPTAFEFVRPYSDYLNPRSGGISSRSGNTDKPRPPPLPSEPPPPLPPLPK

Consider `CS(=N)(=O)Cc1cccc(Nc2ncc(F)c(-c3ccc(F)c4ccoc34)n2)c1` (racemic) [Example 4, (rac)-5-Fluoro-4-(4-fluoro-1-benzofuran-7-yl)-N-{3-[(S-methylsulfonimidoyl)-methyl]phenyl}-pyrimidin-2-amine], for which the IC50 against CDK9/CycT1 was determined as 4.6 nM; in the assay with DU145 cells (Homo sapiens, DU-145, 96 h) it was 169 nM; in the assay with Caco-2 cells (Homo sapiens, Caco-2, 96 h), 141 nM; with MOLM-13 cells (Homo sapiens, MOLM-13, 72 h) it was 108 nM. Besides, the “Selectivity CDK9 over CDK2: IC50 (CDK2)/IC50 (CDK9)” value (from here on “Selectivity CDK9 over CDK2: IC50”) on CDK9/CycT1 came out at 24.
The like results for `CS(=N)(=O)Cc1cc(F)cc(Nc2ncc(F)c(-c3ccc(F)c4ccoc34)n2)c1` (racemic) [Example 10, (rac)-5-Fluoro-4-(4-fluoro-1-benzofuran-7-yl)-N-{3-fluoro-5-[(S-methylsulfonimidoyl)-methyl]-phenyl}-pyrimidin-2-amine] were, in that order, 3.1 nM, 72 nM, 104 nM, 37 nM and 16.
Consider `CS(=O)(Cc1cccc(Nc2ncc(F)c(-c3ccc(F)c4ccoc34)n2)c1)=NC#N` (single isomer, unassigned) [Example 2, [(3-{[5-Fluoro-4-(4-fluoro-1-benzofuran-7-yl)pyrimidin-2-yl]amino}benzyl)(methyl)oxido-λ^6-sulfanylidene]cyanamide], for which the IC50 is 1.4 nM on CDK9/CycT1, 54 nM with DU145 cells, 87 nM in the assay on Caco-2 cells and 29 nM in the assay with MOLM-13 cells. Also, on CDK9/CycT1, the “Selectivity CDK9 over CDK2: IC50” value was 14.
In the same order, the values of `CS(=O)(Cc1cc(F)cc(Nc2ncc(F)c(-c3ccc(F)c4ccoc34)n2)c1)=NC#N` (single isomer, unassigned) [Example 9, [(3-Fluoro-5-{[5-fluoro-4-(4-fluoro-1-benzofuran-7-yl)pyrimidin-2-yl]amino}benzyl)(methyl)-oxido-λ^6-sulfanylidene]cyanamide] are 2.1 nM, 34 nM, 54 nM, 24 nM and 42.
`CS(=N)(=O)Cc1cccc(Nc2ncc(F)c(-c3ccc(F)c4ccoc34)n2)c1` (single isomer, unassigned) [Example 5, 5-Fluoro-4-(4-fluoro-1-benzofuran-7-yl)-N-{3-[(S-methylsulfonimidoyl)-methyl]-phenyl}-pyrimidin-2-amine]: the IC50 at CDK9/CycT1 was 3.7 nM; with DU145 cells (Homo sapiens, DU-145, 96 h), 186 nM; in the assay on Caco-2 cells, 230 nM; in the assay with MOLM-13 cells (Homo sapiens, MOLM-13, 72 h) it was 115 nM. In addition, the “Selectivity CDK9 over CDK2: IC50” value on CDK9/CycT1 is given as 24.
Consider `CS(=O)(Cc1cc(Nc2ncc(F)c(-c3ccc(F)c4ccoc34)n2)cc(S(F)(F)(F)(F)F)c1)=NC#N` (racemic) [Example 17, (rac)-{[3-{[5-fluoro-4-(4-fluoro-1-benzofuran-7-yl)pyrimidin-2-yl]amino}-5-(pentafluoro-λ^6-sulfanyl)benzyl](methyl)oxido-λ^6-sulfanylidene}cyanamide], for which the IC50 at CDK9/CycT1 was 8 nM; in the assay with DU145 cells (Homo sapiens, DU-145, 96 h), 94 nM; with Caco-2 cells (Homo sapiens, Caco-2, 96 h) it was 111 nM; with MOLM-13 cells (Homo sapiens, MOLM-13, 72 h) it was 57 nM. The “Selectivity CDK9 over CDK2: IC50” value at CDK9/CycT1 is given as 33.
As to `Cc1cc(CS(C)(=O)=NC#N)cc(Nc2ncc(F)c(-c3ccc(F)c4ccoc34)n2)c1` (racemic) [Example 13, (rac)-[(3-{[5-Fluoro-4-(4-fluoro-1-benzofuran-7-yl)pyrimidin-2-yl]amino}-5-methylbenzyl)-(methyl)oxido-λ^6-sulfanylidene]cyanamide], the IC50 worked out at 86 nM in the assay with DU145 cells (Homo sapiens, DU-145, 96 h) and 40 nM with Caco-2 cells (Homo sapiens, Caco-2, 96 h).
In the same order, the values of `CS(=N)(=O)Cc1cc(F)cc(Nc2ncc(F)c(-c3ccc(F)c4ccoc34)n2)c1` (single isomer, unassigned) [Example 11, 5-Fluoro-4-(4-fluoro-1-benzofuran-7-yl)-N-{3-fluoro-5-[(S-methylsulfonimidoyl)-methyl]-phenyl}-pyrimidin-2-amine] are 41 nM and 47 nM.
With `CS(=N)(=O)Cc1cccc(Nc2ncc(F)c(-c3ccc(F)c4ccoc34)n2)c1` (single isomer, unassigned) [Example 6, 5-Fluoro-4-(4-fluoro-1-benzofuran-7-yl)-N-{3-[(S-methylsulfonimidoyl)-methyl]-phenyl}-pyrimidin-2-amine], the IC50 came to 2.6 nM on CDK9/CycT1, 110 nM in the assay on DU145 cells, 112 nM with Caco-2 cells and 117 nM in the assay with MOLM-13 cells. The “Selectivity CDK9 over CDK2: IC50” value at CDK9/CycT1 is reported as 22.
`CS(=N)(=O)Cc1cc(F)cc(Nc2ncc(F)c(-c3ccc(F)c4ccoc34)n2)c1` (single isomer, unassigned) [Example 12, 5-Fluoro-4-(4-fluoro-1-benzofuran-7-yl)-N-{3-fluoro-5-[(S-methylsulfonimidoyl)-methyl]-phenyl}-pyrimidin-2-amine]: the IC50 on CDK9/CycT1 came out at 3.1 nM; in the assay on DU145 cells, 62 nM; in the assay on Caco-2 cells it was 57 nM. Further, the “Selectivity CDK9 over CDK2: IC50” value at CDK9/CycT1 is on record as 15.
